# Assay results reported in PubChem BioAssay (NCI).
#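 Results reflect a 48-hour exposure of cells in 96-well plates to compound at five concentrations. The concentration for 50% growth inhibition is given as GI50. TGI: concentration producing complete growth inhibition.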
# Experiments:
# Test in all cases: inhibition of tumour cell growth, NCI panel, 48 h
# UACC-257 melanoma = tested on: UACC-257 melanoma
# HCT-116 colon = tested on: HCT-116 colon
# SK-OV-3 ovarian = tested on: SK-OV-3 ovarian
# HOP-92 NSCLC = tested on: HOP-92 NSCLC
# NCI-H23 lung = tested on: NCI-H23 lung
# EKVX NSCLC = tested on: EKVX NSCLC
# UO-31 renal = tested on: UO-31 renal
# MDA-MB-468 breast = tested on: MDA-MB-468 breast
# SW-620 colon = tested on: SW-620 colon
# SK-MEL-2 melanoma = tested on: SK-MEL-2 melanoma
# A498 renal = tested on: A498 renal
# OVCAR-8 ovarian = tested on: OVCAR-8 ovarian
# OVCAR-4 ovarian = tested on: OVCAR-4 ovarian
# A549 NSCLC = tested on: A549 NSCLC
# NCI-H226 lung = tested on: NCI-H226 lung
# HS 578T breast = tested on: HS 578T breast
# PC-3 prostate = tested on: PC-3 prostate
# OVCAR-5 ovarian = tested on: OVCAR-5 ovarian
# NCI-H460 lung = tested on: NCI-H460 lung
# MDA-MB-435 = tested on: MDA-MB-435
# HT29 colon = tested on: HT29 colon
# SK-MEL-28 melanoma = tested on: SK-MEL-28 melanoma
# SF-295 CNS = tested on: SF-295 CNS
# SF-268 CNS = tested on: SF-268 CNS
# COLO 205 colon = tested on: COLO 205 colon
# MALME-3M melanoma = tested on: MALME-3M melanoma
# MCF7 breast = tested on: MCF7 breast
# NCI-H522 lung = tested on: NCI-H522 lung
compound,measurement,setting,value
O=C(N/N=C/c1ccc(-c2ccc(O)cc2)s1)c1[nH]c2ccc(Br)cc2c1-c1ccccc1,GI50,UACC-257 melanoma,10.5 µM
same,TGI,UACC-257 melanoma,28 µM
same,GI50,HCT-116 colon,3.09 µM
same,TGI,HCT-116 colon,11.7 µM
same,GI50,SK-OV-3 ovarian,12.2 µM
same,TGI,SK-OV-3 ovarian,27.8 µM
same,GI50,HOP-92 NSCLC,2.98 µM
same,TGI,HOP-92 NSCLC,9.12 µM
same,GI50,NCI-H23 lung,3.25 µM
same,TGI,NCI-H23 lung,11.2 µM
same,GI50,EKVX NSCLC,4.04 µM
same,TGI,EKVX NSCLC,14.8 µM
same,GI50,UO-31 renal,2.7 µM
same,TGI,UO-31 renal,13.5 µM
same,GI50,MDA-MB-468 breast,2.67 µM
same,TGI,MDA-MB-468 breast,7.57 µM
same,GI50,SW-620 colon,4.14 µM
same,TGI,SW-620 colon,15.2 µM
same,GI50,SK-MEL-2 melanoma,3.45 µM
same,TGI,SK-MEL-2 melanoma,12.2 µM
same,GI50,A498 renal,5.57 µM
same,TGI,A498 renal,18.9 µM
same,GI50,OVCAR-8 ovarian,4.22 µM
same,TGI,OVCAR-8 ovarian,17 µM
same,GI50,OVCAR-4 ovarian,3.52 µM
same,TGI,OVCAR-4 ovarian,14.1 µM
same,GI50,A549 NSCLC,4.28 µM
same,TGI,A549 NSCLC,17.7 µM
same,GI50,NCI-H226 lung,5.63 µM
same,TGI,NCI-H226 lung,20.9 µM
same,GI50,HS 578T breast,3.02 µM
same,TGI,HS 578T breast,14.1 µM
same,GI50,PC-3 prostate,3.17 µM
same,TGI,PC-3 prostate,13.9 µM
same,GI50,OVCAR-5 ovarian,5.15 µM
same,TGI,OVCAR-5 ovarian,17.2 µM
same,GI50,NCI-H460 lung,2.72 µM
same,TGI,NCI-H460 lung,7.99 µM
same,GI50,MDA-MB-435,2.99 µM
same,TGI,MDA-MB-435,10.1 µM
same,GI50,HT29 colon,2.3 µM
same,TGI,HT29 colon,5.36 µM
same,GI50,SK-MEL-28 melanoma,3.22 µM
same,TGI,SK-MEL-28 melanoma,11.8 µM
same,GI50,SF-295 CNS,2.2 µM
same,TGI,SF-295 CNS,5.28 µM
same,GI50,SF-268 CNS,5.16 µM
same,TGI,SF-268 CNS,20.3 µM
same,GI50,COLO 205 colon,7.12 µM
same,TGI,COLO 205 colon,23 µM
same,GI50,MALME-3M melanoma,2.41 µM
same,TGI,MALME-3M melanoma,9.77 µM
same,GI50,MCF7 breast,2.57 µM
same,TGI,MCF7 breast,10.9 µM
same,GI50,NCI-H522 lung,3.42 µM
